In publication PMC3242598, “Phase I study of BIBF 1120 with docetaxel and prednisone in metastatic chemo-naive hormone-refractory prostate cancer patients” (British Journal of Cancer, 2011):

Tested on: patients with metastatic, chemo-naive, hormone-refractory prostate cancer (HRPC)
Assay: Phase I safety analysis: adverse events graded by CTCAE version 3.0
Format: in vivo, human
Conditions: for Dyspepsia: patients with drug-related AE / Dysphonia: patients with drug-related AE / Elevated ALT: patients with drug-related AE / Elevated AST: patients with drug-related AE / Elevated GGT: patients with drug-related AE / Elevated alkaline phosphatase: patients with drug-related AE / Epistasis: patients with drug-related AE / Headache: patients with drug-related AE / Hot flush: patients with drug-related AE / Mucosal inflammation: patients with drug-related AE / Muscle spasm: patients with drug-related AE / Nausea: patients with drug-related AE / Neuropathy: patients with drug-related AE / Pyrexia: patients with drug-related AE / Rash: patients with drug-related AE / Upper abdominal pain: patients with drug-related AE / Vomiting: patients with drug-related AE / Weight decrease: patients with drug-related AE / Ageusia: patients with drug-related AE / Alopecia: patients with drug-related AE / Anorexia: patients with drug-related AE / Asthenia: patients with drug-related AE / Constipation: patients with drug-related AE / Diarrhoea: patients with drug-related AE / Dysgeusia: patients with drug-related AE: all courses
Protocol: On days 2–21 (21-day cycle), patients took an oral dose of BIBF 1120 twice daily. Patients were instructed to swallow BIBF 1120 with water at the same time every day to ensure a dose interval of ∼12 h. On day 2 of treatment cycles (TCs) 1 and 2, patients only took the morning dose of BIBF 1120, omitting the evening dose to allow PK evaluation. All patients were premedicated with oral corticosteroids (dexamethasone 8 mg per os or methylprednisolone 32 mg per os, at 12 h and 1 h before docetaxel infusion) and subsequently took 5 mg prednisone oral BID throughout the trial. On day 1 of each TC, patients received an IV infusion of 75 mg m^−2 docetaxel administered over 1 h.
All patients who received at least one dose of BIBF 1120 or docetaxel were assessed during the safety analysis. Intensity of AEs was graded according to Common Terminology Criteria for Adverse Events (CTCAE) version 3.0. Objective response was defined as a PSA decline ⩾50% from the baseline value over two consecutive courses and/or tumour response according to RECIST criteria ([Therasse et al, 2000]).

[1] = 200 mg BID (n=3) + docetaxel/prednisone, all grades
[2] = 250 mg BID (n=12) + docetaxel/prednisone, Gr 3/4
[3] = 250 mg BID (n=12) + docetaxel/prednisone, all grades
[4] = Total, all dose levels (n=21) + docetaxel/prednisone, Gr 3/4
[5] = Total, all dose levels (n=21) + docetaxel/prednisone, all grades
[6] = during TC 1, all dose levels 100–250 mg BID + docetaxel/prednisone
[7] = during TC 1, all dose levels + docetaxel/prednisone

COC(=O)c1ccc2c(c1)NC(=O)/C2=C(\Nc1ccc(N(C)C(=O)CN2CCN(C)CC2)cc1)c1ccccc1 [BIBF 1120]
8: Diarrhoea: patients with drug-related AE [3]
9: Nausea: patients with drug-related AE [5]
23.8%: Alopecia, frequency of AE irrespective of relatedness (all TCs and doses) | Alopecia, frequency of drug-related AE [6] | Patients with AE severity grade 3 [7]
28.6%: Nausea, frequency of AE irrespective of relatedness (all TCs and doses) | Nausea, frequency of drug-related AE [6] | Vomiting, frequency of drug-related AE [6] | Patients with AE severity grade 1 [7] | Patients with AE severity grade 2 [7]
1: Epistasis: patients with drug-related AE [1] | Hot flush: patients with drug-related AE [1] | Ageusia: patients with drug-related AE [3] | Dyspepsia: patients with drug-related AE [3] | Dysphonia: patients with drug-related AE [3] | Hot flush: patients with drug-related AE [3] | Neuropathy: patients with drug-related AE [3] | Pyrexia: patients with drug-related AE [3] | Weight decrease: patients with drug-related AE [3]
6: Anorexia: patients with drug-related AE [5]
six: Patients with CTCAE grade 3/4 liver enzyme (transaminase) elevations, of twelve (250 mg BID, any TC, based on laboratory values)
5: Nausea: patients with drug-related AE [3] | Epistasis: patients with drug-related AE [5] | Vomiting: patients with drug-related AE [5]
3: Anorexia: patients with drug-related AE [3] | Elevated AST: patients with drug-related AE [3] | Elevated GGT: patients with drug-related AE [3] | Epistasis: patients with drug-related AE [3] | Upper abdominal pain: patients with drug-related AE [3] | Vomiting: patients with drug-related AE [3] | Constipation: patients with drug-related AE [5] | Dysgeusia: patients with drug-related AE [5] | Elevated AST: patients with drug-related AE [5] | Elevated GGT: patients with drug-related AE [5]
2: Dysphonia: patients with drug-related AE [1] | Nausea: patients with drug-related AE [1] | Vomiting: patients with drug-related AE [1] | Elevated ALT: patients with drug-related AE [2] | Elevated AST: patients with drug-related AE [2] | Elevated GGT: patients with drug-related AE [2] | Constipation: patients with drug-related AE [3] | Dysgeusia: patients with drug-related AE [3] | Elevated alkaline phosphatase: patients with drug-related AE [3] | Mucosal inflammation: patients with drug-related AE [3] | Muscle spasm: patients with drug-related AE [3] | Rash: patients with drug-related AE [3] | Diarrhoea: patients with drug-related AE [4] | Elevated ALT: patients with drug-related AE [4] | Elevated AST: patients with drug-related AE [4] | Elevated GGT: patients with drug-related AE [4] | Ageusia: patients with drug-related AE [5] | Dyspepsia: patients with drug-related AE [5] | Elevated alkaline phosphatase: patients with drug-related AE [5] | Headache: patients with drug-related AE [5] | Hot flush: patients with drug-related AE [5] | Mucosal inflammation: patients with drug-related AE [5] | Muscle spasm: patients with drug-related AE [5] | Neuropathy: patients with drug-related AE [5] | Pyrexia: patients with drug-related AE [5] | Rash: patients with drug-related AE [5] | Weight decrease: patients with drug-related AE [5]
10: Asthenia: patients with drug-related AE [3]
14: Asthenia: patients with drug-related AE [5]
13: Diarrhoea: patients with drug-related AE [5]
95.2%: Asthenia, frequency of AE irrespective of relatedness (all TCs and doses)
61.9%: Asthenia, frequency of drug-related AE [6]
85.7%: Diarrhoea, frequency of AE irrespective of relatedness (all TCs and doses)
14.3%: Patients with AE severity grade 4 (neutropenia only, considered related to docetaxel) [7]
0: Dyspepsia: patients with drug-related AE [1] | Elevated ALT: patients with drug-related AE [1] | Elevated AST: patients with drug-related AE [1] | Elevated GGT: patients with drug-related AE [1] | Elevated alkaline phosphatase: patients with drug-related AE [1] | Headache: patients with drug-related AE [1] | Mucosal inflammation: patients with drug-related AE [1] | Muscle spasm: patients with drug-related AE [1] | Neuropathy: patients with drug-related AE [1] | Pyrexia: patients with drug-related AE [1] | Rash: patients with drug-related AE [1] | Upper abdominal pain: patients with drug-related AE [1] | Weight decrease: patients with drug-related AE [1] | Ageusia: patients with drug-related AE [2] | Alopecia: patients with drug-related AE [2] | Anorexia: patients with drug-related AE [2] | Asthenia: patients with drug-related AE [2] | Constipation: patients with drug-related AE [2] | Diarrhoea: patients with drug-related AE [2] | Dysgeusia: patients with drug-related AE [2] | Dyspepsia: patients with drug-related AE [2] | Dysphonia: patients with drug-related AE [2] | Elevated alkaline phosphatase: patients with drug-related AE [2] | Epistasis: patients with drug-related AE [2] | Headache: patients with drug-related AE [2] | Hot flush: patients with drug-related AE [2] | Mucosal inflammation: patients with drug-related AE [2] | Muscle spasm: patients with drug-related AE [2] | Nausea: patients with drug-related AE [2] | Neuropathy: patients with drug-related AE [2] | Pyrexia: patients with drug-related AE [2] | Rash: patients with drug-related AE [2] | Upper abdominal pain: patients with drug-related AE [2] | Vomiting: patients with drug-related AE [2] | Weight decrease: patients with drug-related AE [2] | Headache: patients with drug-related AE [3] | Ageusia: patients with drug-related AE [4] | Alopecia: patients with drug-related AE [4] | Anorexia: patients with drug-related AE [4] | Asthenia: patients with drug-related AE [4] | Constipation: patients with drug-related AE [4] | Dysgeusia: patients with drug-related AE [4] | Dyspepsia: patients with drug-related AE [4] | Dysphonia: patients with drug-related AE [4] | Elevated alkaline phosphatase: patients with drug-related AE [4] | Epistasis: patients with drug-related AE [4] | Headache: patients with drug-related AE [4] | Hot flush: patients with drug-related AE [4] | Mucosal inflammation: patients with drug-related AE [4] | Muscle spasm: patients with drug-related AE [4] | Nausea: patients with drug-related AE [4] | Neuropathy: patients with drug-related AE [4] | Pyrexia: patients with drug-related AE [4] | Rash: patients with drug-related AE [4] | Upper abdominal pain: patients with drug-related AE [4] | Vomiting: patients with drug-related AE [4] | Weight decrease: patients with drug-related AE [4]
One: Patients with grade 3 diarrhoea (200 mg BID + docetaxel/prednisone, TC 1)
4: Alopecia: patients with drug-related AE [3] | Elevated ALT: patients with drug-related AE [3] | Alopecia: patients with drug-related AE [5] | Dysphonia: patients with drug-related AE [5] | Elevated ALT: patients with drug-related AE [5] | Upper abdominal pain: patients with drug-related AE [5]
50%: Patients with CTCAE grade 3/4 increases in hepatic enzymes (250 mg BID, entire treatment period)
